According to ChEMBL document CHEMBL2146417, “Fluorescent reporters of monoamine transporter distribution and function” (Bioorg Med Chem Lett, 2011):
Active and inactive are the calls of the source. No cut-off for these calls is given here.

How the values were obtained:
[1] = Octanol-phosphate buffered saline partition coefficient, log K of the compound; type: physicochemical; details: for logD: octanol/phosphate buffered saline, read-out: log K
Gallus gallus = species on record: Gallus gallus; assay: Binding affinity to monoamine transporter in dissociated chick brain stem cells assessed as receptor-mediated compound uptake; type: cell-based
[2] = Solubility of the compound in methanol; type: physicochemical
[3] = Solubility of the compound in DMSO; type: physicochemical
HEK293 = assay: Binding affinity to human monoamine transporter expressed in HEK293 cells assessed as receptor-mediated compound uptake; type: cell-based
Rattus norvegicus [4] = assay: Toxicity in Sprague-Dawley rat assessed as change in mean breathing rate at 0.23 to 1 mM administered for 1 to 3 mins through polyethylene cannula in carotid artery measured after 600 seconds; type: organism-based; details: in vivo, other, 10 min, 1000 µM
[5] = Drug uptake in Sprague-Dawley rat blood platelet cells administered through intra-arterial injection by fluorescence microscopy analysis; type: ADME, cell-based; details: in vivo, other
Brain = assay: Drug uptake in Sprague-Dawley rat brain administered through intra-arterial injection by fluorescence microscopy analysis; type: ADME, tissue-based; details: in vivo, other
MLO-Y4 = assay: Binding affinity to monoamine transporter in mouse MLO-Y4 cells assessed as receptor-mediated compound uptake at 20 uM by confocal microscopic analysis in presence of serotonin reuptake inhibitor clomipramine; type: cell-based
Rattus norvegicus [6] = assay: Toxicity in Sprague-Dawley rat assessed as change in mean breathing rate at 0.23 to 1 mM administered for 1 to 3 mins through polyethylene cannula in carotid artery measured after 200 to 400 seconds; type: organism-based; details: in vivo, other, 1000 µM
Rattus norvegicus [7] = assay: Toxicity in Sprague-Dawley rat assessed as change in heart rate at 0.25 mM administered for 30 seconds through polyethylene cannula in carotid artery; type: organism-based; details: in vivo, other, 250 µM
Rattus norvegicus [8] = assay: Toxicity in Sprague-Dawley rat assessed as change in mean breathing rate at 0.25 mM administered for 30 seconds through polyethylene cannula in carotid artery; type: organism-based; details: in vivo, other, 250 µM
Rattus norvegicus [9] = assay: Toxicity in Sprague-Dawley rat assessed as prolonged reduction in NRM neurons activity at 0.23 to 1 mM administered for 1 to 3 mins through polyethylene cannula in carotid artery measured 30 mins post dose; type: organism-based; details: in vivo, other, 0.5 h, 1000 µM
Rattus norvegicus [10] = assay: Toxicity in Sprague-Dawley rat assessed as change in blood pressure at 0.25 mM administered for 30 seconds through polyethylene cannula in carotid artery; type: organism-based; details: in vivo, other, 250 µM
Rattus norvegicus [11] = assay: Toxicity in Sprague-Dawley rat assessed as prolonged reduction in NRM neurons activity at 0.23 to 1 mM administered for 1 to 3 mins through polyethylene cannula in carotid artery measured immediately post dose; type: organism-based; details: in vivo, other, 1000 µM

Structure (SMILES)	logD [1]	solubility [2]	solubility [3]	Activity (Gallus gallus)	Activity (HEK293)	further results
CN[C@H]1CC[C@@H](c2ccc(Cl)c(Cl)c2)c2ccccc21 [SERTRALINE]						log K ([1]; octanol/water): 1.37
NCCc1c[nH]c2ccc(O)cc12 [SEROTONIN]	-1.57					
NCCc1ccc2ccc3cccc4ccc1c2c34	1.42	soluble	soluble	inactive	inactive	
NCCc1c2ccccc2cc2ccccc12	1.1	soluble	soluble	inactive	inactive	
NCCn1cc2c(nc1=O)Nc1ccccc1S2	0.65	soluble	soluble	Active	Active	

Continued, in another order:

logD [1]	solubility [2]	solubility [3]	Structure (SMILES)	Activity (Gallus gallus)	Activity (HEK293)	further results
-2.38			NCCc1ccc(O)c(O)c1 [DOPAMINE]			
0.28	soluble	soluble	COc1cccc2c(OCCN)cccc12	inactive	inactive	
0.1	soluble	soluble	NCCOc1cccc2c(O)cccc12	inactive	inactive	
-0.58	soluble	soluble	NCCN1C(=O)c2cccc3c(N)ccc(c23)C1=O	Active	Active	Activity (Rattus norvegicus [4]): Non-toxic; Drug uptake [5]: Active; Drug uptake (Brain): Not Active; Activity (MLO-Y4): inactive; Activity (Rattus norvegicus [6]): Non-toxic; Activity (Rattus norvegicus [7]): Non-toxic; Activity (Rattus norvegicus [8]): Non-toxic; Activity (Rattus norvegicus [9]): Non-toxic; Activity (Rattus norvegicus [10]): Non-toxic; Activity (Rattus norvegicus [11]): Toxic
